Measured values taken from PubChem BioAssay (NCI).
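Following 48 hours of exposure in 96-well plates, responses at five concentrations were used to interpolate endpoints linearly. At the GI50, growth is halved. TGI marks complete inhibition of growth.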

Tests used:
Assay in all cases: NCI tumour cell line growth inhibition, 48 h
786-0 renal = tested on: 786-0 renal
A498 renal = tested on: A498 renal
A549 NSCLC = tested on: A549 NSCLC
ACHN renal = tested on: ACHN renal
BT-549 breast = tested on: BT-549 breast
CAKI-1 renal = tested on: CAKI-1 renal
CCRF-CEM leukemia = tested on: CCRF-CEM leukemia
COLO 205 colon = tested on: COLO 205 colon
DU-145 prostate = tested on: DU-145 prostate
EKVX NSCLC = tested on: EKVX NSCLC
HCC-2998 colon = tested on: HCC-2998 colon
HCT-116 colon = tested on: HCT-116 colon
HCT-15 colon = tested on: HCT-15 colon
HL-60(TB) leukemia = tested on: HL-60(TB) leukemia
HOP-62 NSCLC = tested on: HOP-62 NSCLC
HOP-92 NSCLC = tested on: HOP-92 NSCLC
HS 578T breast = tested on: HS 578T breast
HT29 colon = tested on: HT29 colon
IGROV1 ovarian = tested on: IGROV1 ovarian
K-562 leukemia = tested on: K-562 leukemia
KM12 colon = tested on: KM12 colon
LOX IMVI melanoma = tested on: LOX IMVI melanoma
M14 melanoma = tested on: M14 melanoma
MALME-3M melanoma = tested on: MALME-3M melanoma
MCF7 breast = tested on: MCF7 breast
MDA-MB-231 breast = tested on: MDA-MB-231 breast
MDA-MB-435 = tested on: MDA-MB-435
MOLT-4 leukemia = tested on: MOLT-4 leukemia
NCI-H226 lung = tested on: NCI-H226 lung
NCI-H23 lung = tested on: NCI-H23 lung
NCI-H460 lung = tested on: NCI-H460 lung
NCI-H522 lung = tested on: NCI-H522 lung
NCI/ADR-RES ovarian = tested on: NCI/ADR-RES ovarian
OVCAR-4 ovarian = tested on: OVCAR-4 ovarian
OVCAR-5 ovarian = tested on: OVCAR-5 ovarian
OVCAR-8 ovarian = tested on: OVCAR-8 ovarian
PC-3 prostate = tested on: PC-3 prostate
RPMI-8226 leukemia = tested on: RPMI-8226 leukemia
RXF 393 renal = tested on: RXF 393 renal
SF-268 CNS = tested on: SF-268 CNS
SF-295 CNS = tested on: SF-295 CNS
SF-539 CNS = tested on: SF-539 CNS
SK-MEL-2 melanoma = tested on: SK-MEL-2 melanoma
SK-MEL-28 melanoma = tested on: SK-MEL-28 melanoma
SK-MEL-5 melanoma = tested on: SK-MEL-5 melanoma
SK-OV-3 ovarian = tested on: SK-OV-3 ovarian
SN12C renal = tested on: SN12C renal
SNB-19 CNS = tested on: SNB-19 CNS
SNB-75 CNS = tested on: SNB-75 CNS
SR leukemia = tested on: SR leukemia
SW-620 colon = tested on: SW-620 colon
T-47D breast = tested on: T-47D breast
TK-10 renal = tested on: TK-10 renal
U251 CNS = tested on: U251 CNS
UACC-257 melanoma = tested on: UACC-257 melanoma
UACC-62 melanoma = tested on: UACC-62 melanoma
UO-31 renal = tested on: UO-31 renal

Oc1ccc(CSc2nnc(-c3ccncc3)n2-c2ccccc2)c2cccnc12 gave a GI50 (786-0 renal) of 3.4 µM, a TGI (786-0 renal) of 20 µM and a GI50 (A498 renal) of 2.6 µM. For the same molecule, the TGI (A498 renal) was 8.64 µM, the GI50 (A549 NSCLC) was 1.75 µM and the TGI (A549 NSCLC) was > 100 µM. The GI50 (ACHN renal) was 0.794 µM, the TGI (ACHN renal) was > 28.4 µM and the GI50 (BT-549 breast) was 0.596 µM. The TGI (BT-549 breast) was > 63.1 µM, the GI50 (CAKI-1 renal) was 1.61 µM and the TGI (CAKI-1 renal) was > 100 µM. The GI50 (CCRF-CEM leukemia) was 0.513 µM, the TGI (CCRF-CEM leukemia) was > 100 µM and the GI50 (COLO 205 colon) was 19.2 µM. For the same molecule, the TGI (COLO 205 colon) was > 80.4 µM, the GI50 (DU-145 prostate) was 0.686 µM and the TGI (DU-145 prostate) was > 100 µM. It also gave a GI50 (EKVX NSCLC) of 1.4 µM, a TGI (EKVX NSCLC) of 21.1 µM and a GI50 (HCC-2998 colon) of 3.14 µM. The TGI (HCC-2998 colon) was > 100 µM, the GI50 (HCT-116 colon) was 0.376 µM and the TGI (HCT-116 colon) was > 100 µM. For the same molecule, the GI50 (HCT-15 colon) was 0.363 µM, the TGI (HCT-15 colon) was > 100 µM and the GI50 (HL-60(TB) leukemia) was 0.677 µM. For the same molecule, the TGI (HL-60(TB) leukemia) was 5.32 µM, the GI50 (HOP-62 NSCLC) was 0.773 µM and the TGI (HOP-62 NSCLC) was 16.3 µM. For the same molecule, the GI50 (HOP-92 NSCLC) was 0.192 µM, the TGI (HOP-92 NSCLC) was 0.628 µM and the GI50 (HS 578T breast) was 0.473 µM. For the same molecule, the TGI (HS 578T breast) was > 84.8 µM, the GI50 (HT29 colon) was 3.87 µM and the TGI (HT29 colon) was > 100 µM. For the same molecule, the GI50 (IGROV1 ovarian) was 1.04 µM, the TGI (IGROV1 ovarian) was > 57 µM and the GI50 (K-562 leukemia) was 0.363 µM. For the same molecule, the TGI (K-562 leukemia) was > 100 µM, the GI50 (KM12 colon) was 2.27 µM and the TGI (KM12 colon) was > 100 µM. The GI50 (LOX IMVI melanoma) was 0.471 µM, the TGI (LOX IMVI melanoma) was > 27.9 µM and the GI50 (M14 melanoma) was 0.765 µM. For the same molecule, the TGI (M14 melanoma) was 5.96 µM, the GI50 (MALME-3M melanoma) was 1.05 µM and the TGI (MALME-3M melanoma) was > 81.5 µM. The GI50 (MCF7 breast) was 0.357 µM, the TGI (MCF7 breast) was > 100 µM and the GI50 (MDA-MB-231 breast) was 1.26 µM. For the same molecule, the TGI (MDA-MB-231 breast) was > 55.6 µM, the GI50 (MDA-MB-435) was 0.462 µM and the TGI (MDA-MB-435) was > 100 µM. The GI50 (MOLT-4 leukemia) was 0.72 µM, the TGI (MOLT-4 leukemia) was > 100 µM and the GI50 (NCI-H226 lung) was 3.49 µM. For the same molecule, the TGI (NCI-H226 lung) was > 100 µM, the GI50 (NCI-H23 lung) was 0.433 µM and the TGI (NCI-H23 lung) was > 46.5 µM. It also gave a GI50 (NCI-H460 lung) of 0.375 µM, a TGI (NCI-H460 lung) of 14.4 µM and a GI50 (NCI-H522 lung) of 0.369 µM. For the same molecule, the TGI (NCI-H522 lung) was > 100 µM, the GI50 (NCI/ADR-RES ovarian) was 0.309 µM and the TGI (NCI/ADR-RES ovarian) was > 26.4 µM. For the same molecule, the GI50 (OVCAR-4 ovarian) was 3.18 µM, the TGI (OVCAR-4 ovarian) was > 100 µM and the GI50 (OVCAR-5 ovarian) was 3.69 µM. The TGI (OVCAR-5 ovarian) was > 100 µM, the GI50 (OVCAR-8 ovarian) was 0.493 µM and the TGI (OVCAR-8 ovarian) was > 100 µM. The GI50 (PC-3 prostate) was 0.735 µM, the TGI (PC-3 prostate) was > 100 µM and the GI50 (RPMI-8226 leukemia) was 0.391 µM. The TGI (RPMI-8226 leukemia) was > 100 µM, the GI50 (RXF 393 renal) was 2.83 µM and the TGI (RXF 393 renal) was 70.5 µM. For the same molecule, the GI50 (SF-268 CNS) was 0.804 µM, the TGI (SF-268 CNS) was > 100 µM and the GI50 (SF-295 CNS) was 1.14 µM. For the same molecule, the TGI (SF-295 CNS) was > 38.5 µM, the GI50 (SF-539 CNS) was 0.769 µM and the TGI (SF-539 CNS) was 31.3 µM. For the same molecule, the GI50 (SK-MEL-2 melanoma) was 0.628 µM, the TGI (SK-MEL-2 melanoma) was > 100 µM and the GI50 (SK-MEL-28 melanoma) was 1.79 µM. The TGI (SK-MEL-28 melanoma) was > 100 µM, the GI50 (SK-MEL-5 melanoma) was 0.761 µM and the TGI (SK-MEL-5 melanoma) was 5.6 µM. The GI50 (SK-OV-3 ovarian) was 2.32 µM, the TGI (SK-OV-3 ovarian) was > 29.4 µM and the GI50 (SN12C renal) was 0.385 µM. The TGI (SN12C renal) was > 100 µM, the GI50 (SNB-19 CNS) was 0.453 µM and the TGI (SNB-19 CNS) was > 89.2 µM. It also gave a GI50 (SNB-75 CNS) of 0.642 µM, a TGI (SNB-75 CNS) of 43 µM and a GI50 (SR leukemia) of 0.396 µM. For the same molecule, the TGI (SR leukemia) was > 100 µM, the GI50 (SW-620 colon) was 0.542 µM and the TGI (SW-620 colon) was > 100 µM. The GI50 (T-47D breast) was 1.44 µM, the TGI (T-47D breast) was > 45.4 µM and the GI50 (TK-10 renal) was 3.25 µM. The TGI (TK-10 renal) was > 100 µM, the GI50 (U251 CNS) was 0.422 µM and the TGI (U251 CNS) was 63.6 µM. For the same molecule, the GI50 (UACC-257 melanoma) was 2.4 µM, the TGI (UACC-257 melanoma) was > 31.3 µM and the GI50 (UACC-62 melanoma) was 1.75 µM. For the same molecule, the TGI (UACC-62 melanoma) was 7.52 µM, the GI50 (UO-31 renal) was 0.451 µM and the TGI (UO-31 renal) was 12.8 µM.
